According to ChEMBL document CHEMBL1143204, “Syntheses and in vitro evaluation of arylsulfone-based MMP inhibitors with heterocycle-derived zinc-binding groups (ZBGs)” (Bioorg Med Chem Lett, 2008):

Tests used:
[1] = biological target: Matrix metalloproteinase-9 (Homo sapiens, UniProt P14780); test: Inhibition of MMP9
[2] = biological target: 72 kDa type IV collagenase (Homo sapiens, UniProt P08253); test: Inhibition of MMP2
Collagenase 3 = Collagenase 3 (Homo sapiens, UniProt P45452); test: Inhibition of MMP13
Stromelysin-1 = Stromelysin-1 (Homo sapiens, UniProt P08254); test: Inhibition of MMP3
Sequence of Stromelysin-1 (P08254 whole entry): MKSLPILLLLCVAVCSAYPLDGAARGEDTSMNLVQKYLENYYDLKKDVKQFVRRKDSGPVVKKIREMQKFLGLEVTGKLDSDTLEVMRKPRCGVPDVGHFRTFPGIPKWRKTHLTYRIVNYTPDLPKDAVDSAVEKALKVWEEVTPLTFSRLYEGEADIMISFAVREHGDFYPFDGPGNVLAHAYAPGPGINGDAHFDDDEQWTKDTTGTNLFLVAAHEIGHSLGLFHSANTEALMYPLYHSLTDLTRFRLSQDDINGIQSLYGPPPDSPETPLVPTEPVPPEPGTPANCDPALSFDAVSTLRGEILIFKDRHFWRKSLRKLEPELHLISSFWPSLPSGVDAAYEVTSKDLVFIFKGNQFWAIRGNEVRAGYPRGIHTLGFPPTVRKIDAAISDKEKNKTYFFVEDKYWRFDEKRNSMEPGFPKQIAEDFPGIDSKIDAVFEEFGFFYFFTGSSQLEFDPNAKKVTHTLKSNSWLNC

Interstitial collagenase = biological target: T1, Interstitial collagenase (Homo sapiens, UniProt P03956); test: Inhibition of MMP1
T1 sequence (P03956 whole entry): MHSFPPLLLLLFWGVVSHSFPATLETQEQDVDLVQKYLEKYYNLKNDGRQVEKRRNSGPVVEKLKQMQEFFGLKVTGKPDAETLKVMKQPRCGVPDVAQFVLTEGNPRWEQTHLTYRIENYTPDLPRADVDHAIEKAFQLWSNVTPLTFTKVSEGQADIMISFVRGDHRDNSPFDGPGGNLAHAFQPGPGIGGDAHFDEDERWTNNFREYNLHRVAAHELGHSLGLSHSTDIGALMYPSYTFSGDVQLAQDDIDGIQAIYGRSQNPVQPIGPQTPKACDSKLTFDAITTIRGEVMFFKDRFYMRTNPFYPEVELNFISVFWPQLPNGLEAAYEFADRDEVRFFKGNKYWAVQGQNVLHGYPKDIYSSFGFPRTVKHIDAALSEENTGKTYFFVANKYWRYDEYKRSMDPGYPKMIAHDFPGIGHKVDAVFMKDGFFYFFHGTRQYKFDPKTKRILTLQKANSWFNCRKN

Sequence of Matrix metalloproteinase-9 (P14780 whole entry): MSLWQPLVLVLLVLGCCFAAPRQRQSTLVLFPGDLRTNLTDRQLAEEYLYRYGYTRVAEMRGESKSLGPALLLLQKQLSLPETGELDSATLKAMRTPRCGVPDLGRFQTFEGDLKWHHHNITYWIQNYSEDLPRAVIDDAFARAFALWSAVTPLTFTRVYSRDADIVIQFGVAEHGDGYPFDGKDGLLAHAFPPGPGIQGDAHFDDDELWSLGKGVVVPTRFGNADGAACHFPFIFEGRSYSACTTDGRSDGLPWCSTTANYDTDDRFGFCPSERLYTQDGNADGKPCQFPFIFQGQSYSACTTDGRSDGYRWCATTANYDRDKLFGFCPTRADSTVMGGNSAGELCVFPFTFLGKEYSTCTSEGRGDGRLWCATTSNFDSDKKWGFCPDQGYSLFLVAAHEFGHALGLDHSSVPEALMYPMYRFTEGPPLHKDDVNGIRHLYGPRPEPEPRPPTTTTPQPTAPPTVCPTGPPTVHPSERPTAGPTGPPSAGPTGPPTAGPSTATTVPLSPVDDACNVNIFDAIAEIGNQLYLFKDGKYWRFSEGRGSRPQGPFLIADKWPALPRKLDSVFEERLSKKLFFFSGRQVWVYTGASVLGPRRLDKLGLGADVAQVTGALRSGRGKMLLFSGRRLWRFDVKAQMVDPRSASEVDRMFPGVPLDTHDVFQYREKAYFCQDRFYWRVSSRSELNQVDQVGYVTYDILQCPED
Sequence of 72 kDa type IV collagenase (P08253 whole entry): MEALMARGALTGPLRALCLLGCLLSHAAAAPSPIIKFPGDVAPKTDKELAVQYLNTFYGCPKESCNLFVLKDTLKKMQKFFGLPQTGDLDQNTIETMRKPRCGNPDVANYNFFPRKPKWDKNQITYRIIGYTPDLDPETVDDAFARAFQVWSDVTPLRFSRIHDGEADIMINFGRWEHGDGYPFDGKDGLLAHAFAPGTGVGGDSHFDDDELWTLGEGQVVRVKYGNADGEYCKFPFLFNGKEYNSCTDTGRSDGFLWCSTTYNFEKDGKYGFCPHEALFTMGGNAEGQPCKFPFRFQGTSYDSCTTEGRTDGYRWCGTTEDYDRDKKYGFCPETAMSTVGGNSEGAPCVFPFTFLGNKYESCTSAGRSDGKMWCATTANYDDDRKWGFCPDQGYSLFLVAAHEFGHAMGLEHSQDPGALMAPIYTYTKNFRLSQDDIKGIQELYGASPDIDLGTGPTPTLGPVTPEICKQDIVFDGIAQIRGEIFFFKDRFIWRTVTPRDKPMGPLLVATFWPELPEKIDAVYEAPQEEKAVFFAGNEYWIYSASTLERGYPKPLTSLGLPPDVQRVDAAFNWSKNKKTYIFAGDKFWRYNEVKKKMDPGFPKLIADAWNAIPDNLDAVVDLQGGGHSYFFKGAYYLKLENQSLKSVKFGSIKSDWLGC

| Structure (SMILES) | IC50 [1] | IC50 [2] | IC50 (Collagenase 3) | IC50 (Stromelysin-1) | IC50 (Interstitial collagenase) |
| --- | --- | --- | --- | --- | --- |
| O=C1C(S(=O)(=O)c2ccc(Oc3ccc(OC(F)(F)F)cc3)cc2)CCCCN1O (stereo unspecified) | 21.5 nM | 59.4 nM | – | – | – |
| COc1ccc(Oc2ccc(S(=O)(=O)Cn3cccc(O)c3=O)s2)cc1 | 13.9 nM | 72 nM | – | – | – |
| O=c1c(O)cccn1CS(=O)(=O)c1ccc(Oc2ccc(Cl)cc2)cc1 | 16.4 nM | 10.6 nM | – | – | – |
| O=C1[C@H](CS(=O)(=O)c2ccc(Oc3ccccc3)cc2)NCCCN1O | 21.1 nM | 36.8 nM | 11 nM | 964 nM | > 1000 nM |
| COc1ccc(-c2ccc(S(=O)(=O)C3CCCCN(O)C3=O)cc2)cc1 (stereo unspecified) | > 1000 nM | > 1000 nM | – | – | – |
| O=c1c(O)cccn1CS(=O)(=O)c1ccc(Oc2ccc(OC(F)(F)F)cc2)cc1 | 4 nM | 12.6 nM | 7.3 nM | 203 nM | > 1000 nM |
| COc1ccc(Oc2ccc(S(=O)(=O)Cc3cccn(O)c3=O)cc2)cc1 | – | – | 13.4 nM | 308 nM | > 1000 nM |
| Cc1ccc(S(=O)(=O)Cn2cccc(O)c2=O)cc1 | 809 nM | – | – | – | – |
| COc1ccc(-c2ccc(S(=O)(=O)Cn3cccc(O)c3=O)cc2)cc1 | > 1000 nM | > 1000 nM | – | – | – |
| COc1ccc(Oc2ccc(S(=O)(=O)C3CCCCCN(O)C3=O)cc2)cc1 (stereo unspecified) | > 1000 nM | > 1000 nM | – | – | – |
